Laboratory results reported in patent US20240389587A1, “COMPOSITIONS AND METHODS FOR CONTROLLING PHYTOPATHOGENIC INFECTIONS” (INSTITUT NATIONAL DE RECHERCHE POUR L'AGRICULTURE, …, priority 2021, published 2024).
Read-outs that look alike come from different tables or passages of the source.

Key:
IRE1 = target: T1, IRE1 (Saccharomyces cerevisiae, UniProt P32361); assay: IRE1 inhibitors screening (inhibition of transcriptional activator HAC1 in yeast); format: cell-based
T1 construct: endogenous in cells
T1 sequence (P32361 19-1115): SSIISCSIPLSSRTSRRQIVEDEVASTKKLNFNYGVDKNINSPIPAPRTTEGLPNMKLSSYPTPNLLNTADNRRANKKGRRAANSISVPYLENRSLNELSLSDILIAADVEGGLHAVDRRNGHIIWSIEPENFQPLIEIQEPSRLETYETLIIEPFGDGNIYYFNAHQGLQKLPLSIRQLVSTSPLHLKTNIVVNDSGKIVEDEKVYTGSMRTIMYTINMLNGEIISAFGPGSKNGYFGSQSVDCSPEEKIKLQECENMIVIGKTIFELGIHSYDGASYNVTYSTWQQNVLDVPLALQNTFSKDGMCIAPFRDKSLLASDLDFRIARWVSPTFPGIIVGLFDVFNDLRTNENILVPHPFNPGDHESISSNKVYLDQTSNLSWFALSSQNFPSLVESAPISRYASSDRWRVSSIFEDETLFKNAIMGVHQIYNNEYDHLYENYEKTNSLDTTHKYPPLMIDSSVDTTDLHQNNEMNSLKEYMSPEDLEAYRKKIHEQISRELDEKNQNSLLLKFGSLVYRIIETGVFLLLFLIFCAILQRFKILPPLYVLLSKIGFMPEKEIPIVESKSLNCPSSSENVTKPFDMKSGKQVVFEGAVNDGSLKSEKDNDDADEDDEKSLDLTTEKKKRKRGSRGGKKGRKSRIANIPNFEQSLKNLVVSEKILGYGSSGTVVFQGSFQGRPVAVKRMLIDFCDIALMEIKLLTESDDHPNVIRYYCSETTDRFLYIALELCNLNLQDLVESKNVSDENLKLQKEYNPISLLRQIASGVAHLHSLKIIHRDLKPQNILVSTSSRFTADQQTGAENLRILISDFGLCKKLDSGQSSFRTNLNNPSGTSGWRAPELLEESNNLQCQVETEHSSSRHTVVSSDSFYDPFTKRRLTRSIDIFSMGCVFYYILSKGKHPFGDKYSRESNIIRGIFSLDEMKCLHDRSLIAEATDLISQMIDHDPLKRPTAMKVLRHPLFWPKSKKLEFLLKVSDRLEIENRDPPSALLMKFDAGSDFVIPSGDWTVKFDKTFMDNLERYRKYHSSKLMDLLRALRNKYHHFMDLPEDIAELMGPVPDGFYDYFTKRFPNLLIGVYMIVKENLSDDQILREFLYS
Text: A series of natural products were screened for their capacity to inhibit the UPR pathway via the inhibition of IRE1 in an in vitro screening test, based inhibition of the transcriptional activator HAC1 in Saccharomyces cerevisiae (the IRE1 protein is the ‘sole effector of the UPR pathway in fungi).

Botrytis cinerea = assay: In vitro nephelometric fungal growth test; conditions: for CTP (retained non-fungicidal concentration applied in planta): inferior to MIG50 and inferior or equal to Cmax; for IC50: Botrytis cinerea, 33 h, read-out: MIG50 (concentration inducing 50% inhibition of fungal growth)
Protocol: (§1) For inoculum preparation, conidia of A. brassicicola or B. cinerea were collected from solid culture by adding water followed by gentle scraping of the agar plate. […] Growth was monitored by nephelometric reader (NEPHELOstar Galaxy®, BMG Labtech, Offenburg, Germany) at 25° C., with orbital shaking 5 min before measurement for 33 h. Turbidity was registered every 10 mins with a gain value of 75. Each well was measured during 0.1 s with a laser beam focus of 2.5 mm. A triplicate was realized for each condition. Area under the growth curve was determined by an Excel matrix developed in the lab. Area under the growth curve was normalized by area of positive control (filamentous fungi+DMSO less compound) and PDB medium to obtain a growth percentage.

Alternaria brassicicola = assay: In vitro nephelometric fungal growth test; conditions: for Cmax (concentration inducing at most 20% inhibition of fungal growth) / CTP (retained non-fungicidal concentration applied in planta): A. brassicicola; for CTP (retained non-fungicidal concentration applied in planta): inferior to MIG50 and inferior or equal to Cmax; for IC50: Alternaria brassicicola, 33 h, read-out: MIG50 (concentration inducing 50% inhibition of fungal growth)
Protocol: as §1

[1] = in vitro screening, IRE1 activity of less than 80% = retained as IRE1 inhibitor

Compound	μ (% activation) ± σ (IRE1; [1]) [%]	other results
CC(C)=CCc1c(O)cc2oc3cc(O)c(O)c(CC=C(C)C)c3c(=O)c2c1O [γ-mangostin, 1,3,6,7-tetrahydroxy-2,8-bis(3-methylbut-2-enyl)xanthen-9-one]		IRE1 inhibition (in words) (IRE1): inhibit IRE1 in a micromolar scale; μ (% activation) ± σ (IRE1): 8.7 ± 5.5%; IC50 (IRE1; read-out: IRE1 IC50): 7.3 µM; Cmax (concentration inducing at most 20% inhibition of fungal growth) (Botrytis cinerea; B. cinerea): 100 µM; CTP (retained non-fungicidal concentration applied in planta) (Botrytis cinerea; B. cinerea): 25 µM; IC50 (Botrytis cinerea): > 100 µM; effect on the antifungal effects of ε-viniferin (in words) (Botrytis cinerea; γ-mangostin 100 μM + ε-viniferin 100 μM, B. cinerea, 35 hours): potentiating effect; Cmax (concentration inducing at most 20% inhibition of fungal growth) (Alternaria brassicicola): 5 µM; CTP (retained non-fungicidal concentration applied in planta) (Alternaria brassicicola): 5 µM; IC50 (Alternaria brassicicola): 12.2 ± 0.2 µM
CC(C)=CCc1c(O)cc(O)c2c(=O)c3cccc(O)c3oc12 [1,3,5-trihydroxy-4-prenylxanthone, 1,3,5-trihydroxy-4-(3-methylbut-2-enyl)xanthen-9-one]	70.9 ± 3.2	IRE1 inhibition (in words) (IRE1): inhibit IRE1 in a micromolar scale; IC50 (IRE1; read-out: IRE1 IC50): 12.8 µM; Cmax (concentration inducing at most 20% inhibition of fungal growth) (Botrytis cinerea; B. cinerea): 100 µM; CTP (retained non-fungicidal concentration applied in planta) (Botrytis cinerea; B. cinerea): 25 µM; IC50 (Botrytis cinerea): > 100 µM; Cmax (concentration inducing at most 20% inhibition of fungal growth) (Alternaria brassicicola): 10 µM; CTP (retained non-fungicidal concentration applied in planta) (Alternaria brassicicola): 10 µM; IC50 (Alternaria brassicicola): 41.3 ± 3.7 µM
O=Cc1cc(I)cc(I)c1O [DISA1, 3,5-diiodosalicylaldehyde, reference compound]		Cmax (concentration inducing at most 20% inhibition of fungal growth) (Botrytis cinerea; B. cinerea): 2.5 µM; CTP (retained non-fungicidal concentration applied in planta) (Botrytis cinerea; B. cinerea): 2.5 µM; IC50 (Botrytis cinerea): 6.3 ± 0.7 µM; Cmax (concentration inducing at most 20% inhibition of fungal growth) (Alternaria brassicicola): 2 µM; CTP (retained non-fungicidal concentration applied in planta) (Alternaria brassicicola): 2 µM; IC50 (Alternaria brassicicola): 5.3 ± 0.1 µM
CC1=C[C@H]2c3c(c(O)c(O)c4oc5cc(O)cc(O)c5c(=O)c34)[C@H](c3cc(O)c(O)c4oc5cc(O)cc(O)c5c(=O)c34)[C@H]2C(C)(C)C1 [Griffipavixanthone]	96.8 ± 1.3	
COc1cc(/C=C/C(=O)CC(=O)/C=C/c2ccc(O)c(OC)c2)ccc1O [Curcumine]	177.3 ± 10.3	
C=C(CO)C(=O)O[C@H]1CC(=C)[C@@H]2C[C@H](O)C(=C)[C@@H]2[C@H]2OC(=O)C(=C)[C@@H]21 [Cynaropicrin]		μ (% activation) ± σ (IRE1): 105.6 ± 0.7%
C=CC(C)(C)c1c2c(c(O)c3c(=O)c4cccc(O)c4oc13)C=CC(C)(C)O2 [Caloxanthone C]	104.2 ± 2.8	
Oc1cc(O)c2c(c1)O[C@H](c1ccc(O)c(O)c1)[C@H](O)C2 [Epicatechin]	101.4 ± 0.4	
O=C(/C=C/c1ccc(O)c(O)c1)OC/C=C/c1ccccc1 [Cinnamyl caffeate, [(E)-3-phenylprop-2-enyl] (E)-3-(3,4-dihydroxyphenyl)prop-2-enoate]	73.4 ± 1.7	IRE1 inhibition (in words) (IRE1): inhibit IRE1 in a micromolar scale; IC50 (IRE1; read-out: IRE1 IC50): 21.6 µM
5,6-O-dimethyl-2-deprenylrheediaxanthone	100.3 ± 1.6	
COc1cccc2c1C(=O)c1nccc3cc4c(c-2c13)OCO4 [Oxostephanine, 15-methoxy-3,5-dioxa-11-azapentacyclo [10.7.1.0^2,6.0^8,20.0^14,19]icosa-(20),2(6),7,9,11,14(19),15,17-octaen-13-one]	77.5 ± 0.9	
Steponine	103.4 ± 1.3	
COc1ccc2c(c[n+](C)c3c4cc5c(cc4ccc23)OCO5)c1OC [Chelerythrine]	103.2 ± 3.6	
(−)-monomethylester-15 dehydropinifolic acid	103.8 ± 1.1	
COc1cc2c(cc1OC)[C@@H]1Cc3ccc(OC)c(OC)c3CN1CC2 [Tétrahydropalmatine]	101.8 ± 4.8	
CC(C)=CCc1c(O)cc2oc3ccc(O)cc3c(=O)c2c1O [1,3,7-trihydroxy-2-prenylxanthone]	89.7 ± 0.6	
O=C(O)C1=C[C@@H](O)[C@@H](O)[C@H](O)C1 [Shikimic acid]	102.0 ± 6.2	
O=C(CCc1ccc(O)cc1)c1c(O)cc(O)cc1O [Phloretin]	101.8 ± 1.7	
Mammea A/AA cycloF	93.8 ± 1.1	
Cc1cc(=O)oc2cc(O)cc(O)c12 [5,7-dihydroxy-4-methyl coumarin]	104.0 ± 1.4	
CC(C)=CCC[C@@H](C)[C@@H]1CC[C@]2(C)C3=C(CC[C@@]12C)[C@@]1(C)CC[C@H](O)C(C)(C)[C@@H]1CC3 [Euphol]	105.3 ± 0.7	
(−)-Argemonine		μ (% activation) ± σ (IRE1): 102.6 ± 2.0%
O=C1c2c(O)cc(O)cc2O[C@@H](c2ccc(O)cc2)[C@@H]1c1c(O)cc(O)c2c(=O)cc(-c3ccc(O)cc3)oc12 (racemic) [(±)-Volkensiflavone]	95.8 ± 0.5	

Compound	μ (% activation) ± σ (IRE1; [1]) [%]	other results
c1cc2c(c3c1C[C@H]1c4cc5c(cc4CCN1C3)OCO5)OCO2 [Stylopine]	101.4 ± 4.1	
CC1=CC(=O)C(C(C)C)=CC1=O [Thymoquinone]	104.3 ± 2.2	
O=C1c2c(O)cc(O)cc2O[C@H](c2ccccc2)[C@H]1O [Pinobanksine]	101.5 ± 0.8	
Oc1cc(O)c2c(c1)O[C@H](c1ccc(O)c(O)c1)[C@H](O)[C@H]2c1c(O)cc(O)c2c1O[C@H](c1ccc(O)c(O)c1)[C@H](O)C2 [Procyanidin B2]		μ (% activation) ± σ (IRE1): 101.6 ± 1%
COc1c(O)ccc2c(=O)c3c(O)cc4c(c3oc12)C(C)(C)C(C)O4 (stereo not drawn) [5-O-methyl-2-deprenylrheediaxanthone B]	91.6 ± 3.3	
O=C(/C=C/c1ccc(O)c(O)c1)OCc1ccccc1 [Benzyl caffeate]	104.6 ± 4.8	
C[C@H]1C(=O)CC[C@@H]2[C@]1(C)CC[C@H]1[C@@]2(C)CC[C@@]2(C)[C@@H]3CC(C)(C)CC[C@]3(C)CC[C@]12C [Friedelin]	104.6 ± 0.7	
CC(C)=CCc1c(O)c(CC=C(C)C)c2oc3c(O)ccc(O)c3c(=O)c2c1O [Gartanin]	95.1 ± 5.5	
O=C1C=CC(=O)c2c(O)cccc21 [Juglone, 5-hydroxy-1,4-naphthalenedione]	43.5 ± 3.7	IC50 (IRE1): 12.8 µM; IRE1 inhibition (in words) (IRE1): inhibit IRE1 in a micromolar scale
COc1ccc2cc1Oc1ccc(cc1)C[C@H]1c3c(cc4c(c3Oc3cc5c(cc3OC)CCN(C)[C@@H]5C2)OCO4)CCN1C [Cepharantine]	102.2 ± 4.0	
C=CC(C)(C)c1c(OC)cc(O)c2c(=O)c3ccc(O)c(O)c3oc12 [Isocudraniaxanthone B]	94.3 ± 0.9	
COc1c(O)cc2oc3cc(O)c(CC=C(C)C)c(O)c3c(=O)c2c1CC=C(C)C [α-mangostin]	67.5 ± 0.2	
C=CCc1ccc(O)c(-c2ccc(O)c(CC=C)c2)c1 [Honokiol]	93.9 ± 2	
Caledonixanthone K	100.7 ± 2	
CC(Cc1ccccc1)NCCCc1ccccc1 (stereo not drawn) [N-(3-Phenyl-n-propyl)-1-phenyl-2-aminopropane]		μ (% activation) ± σ (IRE1): 102.6 ± 1%
COc1c(OC)c(O)c2c(=O)c(O)c(-c3ccccc3)oc2c1OC [3,5-dihydroxy-6,7,8-trimethoxyflavone]	98.3 ± 2.4	
(±)-Lindératine	103.0 ± 2.1	
CC(=O)O[C@H]1C(=O)c2c(O)cc(O)cc2O[C@@H]1c1ccccc1 [Pinobanksine 3-O-acetate]	100.3 ± 2.7	
COc1ccc2c(c1O)Oc1c(O)ccc3c1[C@H](C2)N(C)CC3 [Claviculine]	100.3 ± 2.5	
CC(C)=CCc1c(O)cc2oc3c(O)cccc3c(=O)c2c1O [1,3,5-trihydroxy-2-prenylxanthone, 1,3,5-trihydroxy-2-(3-methylbut-2-enyl)xanthen-9-one]	57.4 ± 4.9	IRE1 inhibition (in words) (IRE1): inhibit IRE1 in a micromolar scale; Cmax (concentration inducing at most 20% inhibition of fungal growth) (Botrytis cinerea; B. cinerea): 100 µM; CTP (retained non-fungicidal concentration applied in planta) (Botrytis cinerea; B. cinerea): 25 µM; IC50 (Botrytis cinerea): > 100 µM; Cmax (concentration inducing at most 20% inhibition of fungal growth) (Alternaria brassicicola): 100 µM; CTP (retained non-fungicidal concentration applied in planta) (Alternaria brassicicola): 50 µM; IC50 (Alternaria brassicicola): > 100 µM
CC(C)=CCOC(=O)/C=C/c1ccc(O)c(O)c1 [Prenyl caffeate]	102.4 ± 0.8	
CC(C)=C/C=C/C(C)=C/[C@H]1CC[C@@H]2[C@@]3(C)CC[C@H](O)C(C)(C)[C@@H]3CC[C@@]2(C)[C@@]12COC(=O)C2 [Ebelin lactone]	102.5 ± 0.9	
